Source: patent US20190233884A1 (University of Southern California, priority 2016, published 2019)

Tested on: patients with refractory metastatic colorectal cancer (mCRC)
Experiment: TAS-102-related toxicity (neutropenia, leukopenia, anemia, anorexia, nausea, diarrhea; CTCAE grade) in training/evaluation and testing/validation cohorts, association with SNPs
Type: in vivo, human
Conditions: for frequency of Gr3≤ neutropenia: evaluation cohort; for incidence of Gr3≤ neutropenia: validation cohort
Text: Such effects include but are not limited to febrile neutropenia, leukopenia, stomatitis, neutropenia, hand-foot syndrome, cardiac ischemia, thrombocytopenia, increase in alanine aminotransferase level, increase in aspartate aminotransferase level, increase in total bilirubin, increase in alkaline phosphatase level, increase in creatinine level, anemia, anorexia, nausea, vomiting, decreased appetite, fatigue, abdominal pain, fever, asthenia, and diarrhea. […] “Subchronic” toxicity is the ability of a drug substance to cause harmful or adverse effects for […] but less than the lifetime of the exposed organism. “Chronic” toxicity is the ability of a drug substance or combination therapy to cause harmful effects over an extended period, usually upon repeated or continuous exposure, sometimes lasting for the entire life of the exposed organism. Adverse events are classified and graded by severity. Grade 1 adverse events: mild; asymptomatic or mild symptoms; clinical or diagnostic observations only; intervention not indicated. Grade 2 adverse events: moderate; minimal, local or noninvasive intervention indicated; limiting age-appropriate instrumental activities of daily living (ADL). Grade 3 adverse events: severe or medically significant but not immediately life-threatening; hospitalization or prolongation of hospitalization indicated; disabling; limiting self care activities of daily living. Grade 4 adverse events: life-threatening consequences; urgent intervention indicated. Grade 5 adverse event: death related to AE (Department of Health and Human Services, National Institutes of Health, National Cancer Institute. Common terminology criteria for adverse events (CTCAE) v4.03. 2010).
The primary endpoint in this study was progression-free survival (PFS), and the secondary endpoints were overall survival (OS) and disease control rate (DCR). PFS was calculated from the date of starting treatment to the first observation of disease progression or death from any cause. If a patient had no disease progression or death, PFS was censored at the date of last follow up. OS was calculated from the date of starting treatment until the date of death from any cause or the date of the last follow-up, at which point OS was censored. The disease control rate (DCR) was defined as the proportion of patients who achieved a stable disease (SD) or […] according to RECISTv1.1. Chi-square test was used to examine the difference in baseline patient characteristics among the three cohorts. Allelic distribution of all SNPs by ethnicity for deviation from Hardy-Weinberg equilibrium and the allelic frequencies of SNPs were tested using the Chi-square tests with one degree of freedom. The associations between candidate SNPs and disease control, and toxicities were examined using contingency tables and Fisher's exact test. The associations of SNPs with PFS and OS were analysed using Kaplan-Meier curves and the log-rank test. Because the true mode of inheritance of candidate SNPs was not established yet, a codominant or dominant genetic model if appropriate was considered.
All patients underwent the treatment in salvage-line setting. […] In all patients, adverse events were graded according to the Common Terminology Criteria for Adverse Events, version 4.0.
The primary endpoint in this study was progression-free survival (PFS), and the secondary endpoints were overall survival (OS) and disease control rate (DCR). […] Data of patients without disease progression or death were censored at the date of last follow up. OS was calculated from the date of starting treatment until the date of death from any cause. In patients who were lost to follow-up, data were censored at the date of last follow up. The disease control rate (DCR) was defined as the proportion of patients who achieved a stable disease (SD) or […] according to RECIST v1.1.

How did the “frequency of Gr3≤ neutropenia” value (ATM rs609429 C/C (n=4/14)) turn out when Trifluridine/tipiracil [TAS-102] was run?
Its value is 29%.

What about the “frequency of Gr3≤ neutropenia” value (ATM rs609429 any G allele (n=16/38)) of the same substance?
The value was 42%.

And the “incidence of grade 2≤ neutropenia” value (training cohort)?
Its value is 61.5%.

What about the “incidence of grade 3≤ neutropenia” value (training cohort) of the same substance?
Its value is 38.5%.

And the “frequency of Gr2< neutropenia” value (training cohort, hENT1 rs760370 A/A (n=12/27))?
Its value is 44%.

What about the “frequency of Gr2< neutropenia” value (training cohort, hENT1 rs760370 any G allele (n=20/25)) of the same substance?
Its value is 80%.

And the “treatment delay caused by neutropenia” value (training cohort, share of treatment delays (22/24))?
Its value is 91.8%.

What about the “incidence of Gr3≤ neutropenia” value (ATM rs609429 C/C (n=13/51)) of the same substance?
The value was 26%.

What about the “incidence of Gr3≤ neutropenia” value (ATM rs609429 any G allele (n=34/78)) of the same substance?
The value was 44%.
